Test results: PMC6257782, “Design, Synthesis, and Biological Evaluation of Benzylamino-Methanone Based Cholesteryl Ester Transfer Protein Inhibitors” (Molecules, 2010)

Target: T1, CETP (from rabbit serum) (Oryctolagus cuniculus, UniProt P22687)
T1 construct: native CETP in whole rabbit serum, not purified; BioVision fluorescent CE transfer kit (introduction describes human CETP, 476 residues, PDB 2OBD, not the assayed protein)
T1 sequence (P22687 2-497): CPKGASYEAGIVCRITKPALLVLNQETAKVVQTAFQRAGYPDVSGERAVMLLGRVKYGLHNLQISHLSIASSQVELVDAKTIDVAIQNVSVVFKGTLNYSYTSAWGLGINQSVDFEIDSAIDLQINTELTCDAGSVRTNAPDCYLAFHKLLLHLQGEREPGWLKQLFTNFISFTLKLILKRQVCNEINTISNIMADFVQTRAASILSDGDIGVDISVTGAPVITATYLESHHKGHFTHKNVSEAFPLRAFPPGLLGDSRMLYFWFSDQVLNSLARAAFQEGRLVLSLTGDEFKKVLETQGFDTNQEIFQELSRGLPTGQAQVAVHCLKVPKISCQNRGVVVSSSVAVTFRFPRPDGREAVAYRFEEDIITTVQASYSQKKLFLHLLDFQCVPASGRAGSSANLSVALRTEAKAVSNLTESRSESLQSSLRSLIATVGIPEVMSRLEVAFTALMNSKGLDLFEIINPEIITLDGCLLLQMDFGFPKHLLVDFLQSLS
Assay: fluorescent neutral lipid (CE) transfer assay, BioVision kit
Assay type: biochemical
Details: read-out: In vitro % inhibition of CETP at 10 μM
Source text: fluorescent neutral lipid (CE) transfer assay, BioVision kit on CETP (from rabbit serum)

Row | Structure (SMILES) | inhibition at 10 µM [%]
1 | Cc1ccc(C(=O)c2ccc(NCc3ccc(C(F)(F)F)cc3)cc2)cc1 [compound 22, p-Tolyl-[4-(4-trifluoromethylbenzylamino)phenyl]-methanone] | 12.6 ± 2.6
2 | COc1cccc(CNc2ccc(C(=O)c3ccc(C)cc3)cc2)c1 [compound 19, [4-(3-Methoxybenzylamino)phenyl]-p-tolyl-methanone] | 16.4 ± 3
3 | Cc1ccc(C(=O)c2ccc(NCc3cccc(C(F)(F)F)c3)cc2)cc1 [compound 21, p-Tolyl-[4-(3-trifluoromethylbenzylamino)phenyl]-methanone] | 16.7 ± 0.6
4 | COc1ccc(C(=O)c2ccc(NCc3cccc(C(F)(F)F)c3)cc2)c(OC)c1 [compound 29, (2,4-Dimethoxyphenyl)-[4-(3-trifluoromethylbenzylamino)phenyl]-methanone] | 19.5 ± 0.6
5 | COc1ccc(C(=O)c2ccc(NCc3ccc(C(F)(F)F)cc3)cc2)c(OC)c1 [compound 30, (2,4-Dimethoxyphenyl)-[4-(4-trifluoromethylbenzylamino)phenyl]-methanone] | 19.8 ± 2.9
